The values below are quoted from earlier work in patent US7431914B2, “Contrast agent” (GE Healthcare AS, priority 2003, dated 2008).

The conditions of the series: both the drug and the chelate conjugate.

Each structure is given as a SMILES string.

Take `CCCCc1nc(Cl)c(CO)n1Cc1ccc(-c2ccccc2-c2nn[nH]n2)cc1` [Losartan]: the “excrete through the liver” value is recorded as “more than 80%”.
